pIC50: −log10 of the molar value.
Molecular target: T1, BbKst-kinase (serine/threonine protein kinase BbKst)
T1 construct: kinase domain (from 2233 to 3342 bp of cDNA), His-fused, expressed in E. coli BL21
Test: in vitro […] kinase assay with purified kinase domain
Assay type: biochemical, Bambusa balcooa

O=c1c(O)c(-c2ccc(O)c(O)c2)oc2cc(O)cc(O)c12 [quercetin]
pIC50: 8.15

Reference: publication PMC3847131, “Functional characterization of a serine-threonine protein kinase from Bambusa balcooa that implicates in cellulose overproduction and superior quality fiber formation” (BMC Plant Biology, 2013)
